In data set [1] the test system is TAOK1 (neojunction transcript). Briefly: In vivo PD RT-qPCR in NCI-N87 tumors, TAOK1. More on the design: species or system mouse. The conditions noted are these: 10 mg/kg IV single dose. (In general: Quantitative PCR measures a nucleic acid by following its amplification.)
The subject of data set [2] is FBXW5 (mature mRNA transcript). Briefly: In vivo PD RT-qPCR in NCI-N87 tumors, FBXW5. More on the design: species or system mouse. The conditions noted are these: 10 mg/kg IV single dose.
Data set [3] in a line: Chemical stability of ADC payload, pH 5.5 buffer. The conditions noted are these: for pH 5.5 Stability (t1/2, 37C): Table 26, corresponding payload, pH 5.5, 37C.
A further data set has as its system N87 cells. Briefly: Cell viability CellTiter-Glo, N87. It counts as cell-based, human. The settings on record: unconjugated payload of the ADC.
Another data set relates to MOLP8 cells. Nature of the data set: Cell viability, CD138-expressing MOLP8. The format is cell-based. The conditions noted are these: unconjugated payload of the ADC.
For a further data set, the system named is PC3 cells. Briefly: Cell viability, EPHA2-expressing PC3. The settings on record: corresponding payload alone. It counts as cell-based.
Another data set concerns Ad2.2 pre-mRNA splicing. Briefly: In vitro splicing (IVS) RT-qPCR, Ad2.2 pre-mRNA, HeLa nuclear extract. The format is biochemical. The settings on record: payload of the ADC; read-out: qPCR-IVS-AT S GMean IC50 (nM) Ad2.2 HELA.2. On the procedure: To evaluate payload activity in a cell-free system, an in vitro splicing assay was performed. The payloads were incubated with nuclear extracts and pre-mRNA substrate minigenes.
HeLa nuclear extract preparation: HeLa S3 cell pellets were resuspended in hypotonic buffer (10 mM HEPES pH 7.9, 1.5 mM MgCl2, 10 mM KCl, 0.2 mM PMSF, 0.5 mM DTT) and the suspension was brought up to a total of 5 packed cell volume (PCV). After centrifugation, the supernatant was discarded, and the cells were brought up to 3 PCV with hypotonic buffer and incubated on ice for 10 min. Cells were lysed using a dounce homogenizer and then centrifuged. […]. The nuclei were gently mixed for 30 min before centrifuging. The supernatant (nuclear extract) was then dialyzed into storage buffer (20 mM HEPES pH 7.9, 100 mM KCl, 0.2 mM EDTA, 20% glycerol, 0.2 mM PMSF, 0.5 mM DTT). Protein concentration was determined using NanoDrop 8000 UV-Vis spectrophotometer (ThermoFisher Scientific).
IVS: All Ad2-derived sequences (Pellizzoni et al. (1998) Cell 95(5):615-24) were cloned into pcDNA3.1(+) vector (Promega) using 5′ EcoRI and 3′ Xbal restriction sites. The plasmids were linearized using Xbal and used as DNA templates in in vitro transcription reactions. The FtzΔi intron-less plasmid (Luo and Reed (1999) 96(26):14937-42) was linearized using EcoRI. All RNAs were in vitro transcribed and then purified using MEGAScript T7 (Invitrogen) and MegaClear (Invitrogen) kits, respectively. For splicing reactions using Ad2 variant pre-mRNAs, 1 μL reactions were prepared using 8 μg nuclear extracts prepared from HeLa S3, 2 ng pre-mRNA, 0.2 ng FTZΔi, and varying concentrations of compounds or DMSO. After a 15 min pre-incubation at 30° C., 1 μL splicing activation buffer (0.5 mM ATP, 20 mM creatine phosphate, 1.6 mM MgCl2) was added, and the reactions were incubated for 90 min at 30° C. The reactions were then quenched with 13 μL DMSO, and 25 nL was used for RT-qPCR. RT-qPCR reactions were prepared using TaqMan RNA-to-CT 1-step kit (Life Technologies), RNA from splicing reactions, Ad2 (forward: […]; reverse: […]; probe: […]) and Ftz (forward: […]; reverse: […]; probe: […]) mRNA primer-probe sets. Prism 7 (Graphpad) was used for non-linear regression curve fitting of the formed spliced product and normalized to the control (DMSO) sample. […] In the presence of payload, a decrease in the amount of spliced product was observed.

The next data set relates to MCF7 cells. Nature of the data set: Cell viability CellTiter-Glo, HER2-negative MCF7. The settings on record: unconjugated payload of the ADC. A general note: Cellular ATP, detected with luciferase, serves as a proxy for viable cell number.
The subject of another data set is HCC1954 cells. Briefly: Cell viability CellTiter-Glo, HCC1954. The conditions noted are these: unconjugated payload of the ADC. The format is cell-based.
The next data set has as its system THP1.1. Briefly: Payload cell potency and lethality CTGlo 72 h, THP1.1. The settings on record: payload. The format is cell-based.
Data set [4] is described as follows: Caco-2 permeability of ADC payload. The conditions noted are these: human, Caco-2; payload, B-A/A-B; read-out: Eflux ratio. The format is in vitro ADME. On the procedure: (§1) Integrity of cell monolayer was confirmed by TEER (transepithelial electrical resistance) and Lucifer yellow. Payloads were spiked in duplicate at 10 μM, separately, on both sides of the cell monolayer. Permeability rates from the apical to basolateral (A-B) direction and the basolateral to apical (B-A) direction were determined by sampling aliquots from both chambers immediately after treatment (t=0) and following incubation for 2 hours. Samples were protein precipitated with organic solvent containing internal standard and analyzed by LC-MS/MS (SCIEX; API 5500). The area ratio responses of payload/internal standard over time in both directions were used to generate permeability (cm/see) values. Efflux ratio was calculated by dividing B-A/A-B. Control compounds for low and high permeability and efflux behaved as expected.
Background: Caco-2 monolayers are a common model of the intestinal barrier.

In another data set the test system is Caco-2 cells. Briefly: Caco-2 permeability of ADC payload. It counts as in vitro ADME. The conditions noted are these: for Permeability Caco-2 A-B (10e-6 cm/s): Table 26, corresponding payload. On the procedure:
as §1

In the next data set the test system is Ad2.1 pre-mRNA splicing. Nature of the data set: In vitro splicing (IVS) RT-qPCR, Ad2.1 pre-mRNA, HeLa nuclear extract. It counts as biochemical. The conditions noted are these: payload of the ADC; read-out: qPCR-IVS-AT S Gmean IC50 (nm) Ad2.1 HELA.2.
A further data set concerns the target T1, SF3b complex (Homo sapiens, UniProt O75533+Q7RTV0).
T1 construct: The beads were suspended and added to the prepared nuclear extracts
Briefly: SF3B1 binding / scintillation proximity assay (SPA). The settings on record: payload of the ADC; read-out: SPA-AT S GMean IC50 (nM) SF381 (WT) HELA.2.

For data set [5] the following is noted: in vivo; cited from earlier work.

Several values for one entry are separate records, joined by “and”; a condition that tells them apart may be missing. Identical values can stand only once.

Usually IC50 stands for the concentration needed to halve the response being measured.

With `CC[C@H](O)[C@@H](C)C1OC1C[C@@](C)(O)/C=C/C=C(\C)[C@H]1OC(=O)C[C@H](O)CC[C@@](C)(OC)[C@@H](OC(=O)N2CCN(CCN3C(=O)C=CC3=O)CC2)/C=C/[C@@H]1C` (stereo in doubt) [ADL14-D1, (2S,3S,6S,7R,10R,E)-10-hydroxy-2-((R,2E,4E)-6-hydroxy-7-((2S,3S)-3-((2R,3S)-3-hydroxypentan-2-yl)oxiran-2-yl)-6-methylhepta-2,4-dien-2-yl)-7-methoxy-3,7-dimethyl-12-oxooxacyclododec-4-en-6-yl 4-(2-(2,5-dioxo-2,5-dihydro-1 H-pyrrol-1-yl)ethyl)piperazine-1-carboxylate], the “TAOK1 neojunction transcript in tumors” value in data set [1] is “did not exhibit statistically significant changes”. Also, the “FBXW5 mature mRNA transcript in tumors” value in [2] is on record as “did not exhibit statistically significant changes”.

Consider `CC[C@H](O)[C@@H](C)[C@H]1O[C@@H]1C[C@@](C)(O)/C=C/C=C(\C)[C@H]1OC(=O)C[C@H](O)CC[C@@](C)(OC)[C@@H](OC(=O)N2CCN(C)CC2)/C=C/[C@@H]1C` [D2, (2S,3S,6S,7R,10R,E)-10-hydroxy-2-((R,2E,4E)-6-hydroxy-7-((2R,3R)-3-((2R,3S)-3-hydroxypentan-2-yl)oxiran-2-yl)-6-methylhepta-2,4-dien-2-yl)-7-methoxy-3,7-dimethyl-12-oxooxacyclododec-4-en-6-yl 4-methylpiperazine-1-carboxylate], for which the “pH 5.5 Stability (t1/2, 37C)” value in [3] was determined as 4. Besides, the “Payload LD50” value is on record as greater than 200 nM in the data set with N87 cells, greater than 400 nM in the data set on PC3 cells, 30.318 nM in the data set on MCF7 cells and 2.758 nM in the data set on HCC1954 cells. Besides, the “LD50 (nM) (payload)” value in the data set on MOLP8 cells stood at 5.035 nM. Further, the “Rmin (%) (payload)” value in the data set on MOLP8 cells is listed as −100.198%. Besides, the 50% inhibitory concentration (IC50) is 15.3 nM in the data set on Ad2.2 pre-mRNA splicing; 0.0191 µM and 0.0193 µM in the data set on Ad2.1 pre-mRNA splicing. For the same compound, the “Payload Rmin (%)” value with MCF7 cells is reported as −66.915%; in the data set on HCC1954 cells, −78.732%. In the data set on THP1.1, the “CTGlo-AT S GMean LD50 (nM) 72 h THP1.1” value is given as 11.708 nM. Also, in data set [4], the efflux ratio at 2 h, 10 μM came out at 22.8. Also, the “Permeability Caco-2 A-B (10e-6 cm/s)” value with Caco-2 cells is listed as 0.6 10e-6 cm/s. The Eflux ratio in the data set on Caco-2 cells (payload, B-A/A-B) is 22.756.

Turning to `CC[C@H](O)[C@@H](C)[C@H]1O[C@@H]1C[C@@](C)(O)/C=C/C=C(\C)[C@H]1OC(=O)C[C@H](O)CC[C@@](C)(OC)[C@@H](OC(=O)N2CCN(CCCC(=O)O)CC2)/C=C/[C@@H]1C` [D25], the “pH 5.5 Stability (t1/2, 37C)” value in data set [3] is 3.4. The “Payload LD50” value with N87 cells, in the data set with MCF7 cells and with HCC1954 cells was greater than 200 nM throughout. For the same compound, the “LD50 (nM) (payload)” value with MOLP8 cells was greater than 400 nM. Also, the “Rmin (%) (payload)” value in the data set on MOLP8 cells amounted to 5.94%. The IC50 in the data set on Ad2.2 pre-mRNA splicing is 50.9 nM; on SF3b complex, 14.6 nM; in the data set with Ad2.1 pre-mRNA splicing it was 0.244 µM. The “Payload Rmin (%)” value in the data set on MCF7 cells is 65.639%; with HCC1954 cells it was 26.882%. The “CTGlo-AT S GMean LD50 (nM) 72 h THP1.1” value in the data set with THP1.1 is 2076.811 nM. In [4], the efflux ratio at 2 h, 10 μM was 2.55. Moreover, the “Permeability Caco-2 A-B (10e-6 cm/s)” value in the data set on Caco-2 cells is on record as 0.14 10e-6 cm/s. In the data set on Caco-2 cells (payload), the “permeability (in words)” value is recorded as “poorly permeable”.

`COc1cc2cc(c1Cl)N(C)C(=O)C[C@H](OC(=O)[C@H](C)N(C)C(=O)CCS)[C@]1(C)O[C@H]1[C@H](C)[C@@H]1C[C@@](O)(NC(=O)O1)[C@H](OC)/C=C/C=C(\C)C2` [DM1, reference compound]: the “Stability Mean Stability t1/2 pH5.5 (d)” value in [3] (payload, 20 μM, pH 5.5 buffer, 37° C.) was 1.3 d. For the same compound, the values for the IC50 with Ad2.2 pre-mRNA splicing, at SF3b complex and with Ad2.1 pre-mRNA splicing were greater than 25000 nM, greater than 1200 nM and greater than 25 µM, respectively. Besides, in the data set with THP1.1, the “CTGlo-AT S GMean LD50 (nM) 72 h THP1.1” value is 3.287 nM. In addition, the “CTGlo-AT S Mean MinResponse % 72 h THP1.1” value in the data set with THP1.1 is −93.785%. The “Permeability Mean Caco-2 A-B Perm (10e-6 cm/s)” value in the data set on Caco-2 cells (payload, 10 μM, 2 hours, apical to basolateral) is reported as 0.38 10e-6 cm/s. For the same compound, the “Permeability Mean Caco-2 B-A Perm (10e-Gcm/s)” value with Caco-2 cells (payload, 10 μM, 2 hours, basolateral to apical) is recorded as 28.6 10e-Gcm/s.

Consider ipilimumab, for which the plasma half-life in data set [5] was 12 to 14 days.

On to tremelimumab, for which the plasma half-life entry in [5] is “approximately 22 days”.
